We go through 6 molecules from PubChem BioAssay AID2047 (NMMLSC, 2009).

Sequence of GTPase HRas (Homo sapiens) (P01112 whole entry, looked up): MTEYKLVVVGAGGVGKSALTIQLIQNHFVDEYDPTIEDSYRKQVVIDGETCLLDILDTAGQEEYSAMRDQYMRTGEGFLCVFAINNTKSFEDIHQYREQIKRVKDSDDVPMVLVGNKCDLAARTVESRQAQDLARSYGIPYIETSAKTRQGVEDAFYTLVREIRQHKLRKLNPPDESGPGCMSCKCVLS

This test addresses GTPase HRas (Homo sapiens) (UniProt P01112). Nature of the test: inhibition of fluorescent GTP binding to wild-type Ras – biochemical, pyrazoline analogs, multiplex bead flow cytometry, SAR follow-up (AID 2047). Particulars: GST-Ras beads, Bodipy-FL-GTP binding, Ki calculated from EC50.
What is called Ki is a measure of affinity in units of concentration, obtained from inhibition or displacement. On to `COc1ccc(C2CC(c3ccccc3)=NN2c2ccc(Cl)c(C(=O)O)c2)cc1` (stereo unspecified), for which the Ki is 160 nM.
To `NS(=O)(=O)c1ccc(N2N=C(c3ccc(Cl)cc3)CC2c2ccccc2)cc1` (stereo unspecified) belongs 10 nM; to `COc1ccc(C2=NN(c3ccccc3)C(c3ccccc3C(F)(F)F)C2)cc1` (stereo unspecified), 2770 nM.
As to `COc1ccc(C2CC(c3ccc(Cl)cc3)=NN2c2ccccc2)cc1OC` (stereo unspecified), the Ki is 10 nM.
With `CN(C)c1ccc(C2CC(c3ccccc3)=NN2c2ccccc2)cc1` (stereo unspecified), the Ki was 10 nM.
`COc1ccc(C2=NN(c3ccccc3F)C(c3ccc(F)cc3)C2)cc1` (stereo unspecified): the Ki is 2110 nM.
